Data set [1] has as its system a variety of test species. Kind of data set: Pre-emergence herbicidal activity (glasshouse, sprayed one day after sowing, evaluated after 13 days). The format is in vivo. Also noted: key: 5=total damage to plant; 0=no damage to plant. Conditions: application pre-emergence, rate 1000 g/Ha, scale 0-5. The procedure, abridged:
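Seeds sown in standard soil in pots, sprayed one day later (pre-emergence) with aqueous solution from acetone/water (50:50) formulation with 0.5% Tween 20. Glasshouse at 24/16 °C day/night, 14 h light, 65% humidity, watered twice daily. Damage scored after 13 days, 0 (none) to 5 (total).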

In data set [2] the test system is a variety of test species. Kind of data set: Post-emergence herbicidal activity (glasshouse, sprayed after 8 days cultivation, evaluated after 13 days). Details: key: 5=total damage to plant; 0=no damage to plant. Conditions: rate 1000 g/Ha, scale 0-5. It is filed as in vivo. In outline: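 Damage rating 0 (none) to 5 (total), assessed 13 days after spraying. Plants received the compound in acetone/water 50:50 with 0.5% Tween 20 at 8 days post-sowing, then were kept at 24/16 °C, 14 h photoperiod, 65% RH.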

The results in this text go back to patent US9936701B2, “Herbicidal compounds” (Syngenta Participations AG, priority 2013, dated 2018).

Regarding `CCCC1=C(Cl)C(=O)N(c2cc(C(C)(C)C#N)on2)C1O` (stereo not shown) [A65], the melting point is 99 to 100 °C. In data set [1], the “Pre-emergence herbicidal damage score, ABUTH” value is listed as 5; the “Pre-emergence herbicidal damage score, ALOMY” value amounted to 3; the “Pre-emergence herbicidal damage score, AMARE” value stood at 5; the “Pre-emergence herbicidal damage score, ECHCG” value is 5. For the same molecule, in data set [1], the “Pre-emergence herbicidal damage score, SETFA” value worked out at 5 and the “Pre-emergence herbicidal damage score, ZEAMX” value was 2. In data set [2], the “ABUTH (Abutilon theophrasti) damage score, application post-emergence” value (shortened to “ABUTH … application post-emergence”) turned out to be 5; the “ALOMY (Alopecurus myosuroides) damage score, application post-emergence” value (from here on “ALOMY … application post-emergence”) is listed as 5; the “AMARE (Amaranthus retroflexus) damage score, application post-emergence” value (shortened to “AMARE … application post-emergence”) came to 5; the “ECHCG (Echinochloa crus-galli) damage score, application post-emergence” value (“ECHCG … application post-emergence” below) was 5. Besides, in data set [2], the “SETFA (Setaria faberi) damage score, application post-emergence” value (from here on “SETFA (Setaria faberi) damage score”) came out at 5 and the “ZEAMX (Zea mays) damage score, application post-emergence” value (“ZEAMX (Zea mays) damage score” for short) came to 4.
`COC1=C(C)C(=O)N(c2noc(C(C)C)c2C#N)C1O` (stereo not shown) [G4]: the melting point was 133 to 135 °C. Besides, in data set [1], the “Pre-emergence herbicidal damage score, ABUTH” value stood at 4; the “Pre-emergence herbicidal damage score, ALOMY” value is given as 3; the “Pre-emergence herbicidal damage score, AMARE” value amounted to 5; the “Pre-emergence herbicidal damage score, ECHCG” value worked out at 5. Moreover, in data set [1], the “Pre-emergence herbicidal damage score, SETFA” value was 5 and the “Pre-emergence herbicidal damage score, ZEAMX” value is 2. In data set [2], the “ABUTH … application post-emergence” value came to 5; the “ALOMY … application post-emergence” value came to 5; the “AMARE … application post-emergence” value came to 5; the “ECHCG … application post-emergence” value is 5. Moreover, in data set [2], the “SETFA (Setaria faberi) damage score” value was found to be 5 and the “ZEAMX (Zea mays) damage score” value is given as 4.
`COC1=C(C)C(O)N(c2cc(C(C)(C)C#N)on2)C1=O` (stereo not shown) [D4] showed a melting point of 123 to 125 °C. In addition, in data set [1], the “Pre-emergence herbicidal damage score, ABUTH” value is 5; the “Pre-emergence herbicidal damage score, ALOMY” value worked out at 4; the “Pre-emergence herbicidal damage score, AMARE” value was 5; the “Pre-emergence herbicidal damage score, ECHCG” value is 5. In data set [1], the “Pre-emergence herbicidal damage score, SETFA” value came to 5 and the “Pre-emergence herbicidal damage score, ZEAMX” value was 3. In data set [2], the “ABUTH … application post-emergence” value is 5; the “ALOMY … application post-emergence” value is reported as 5; the “AMARE … application post-emergence” value was determined as 5; the “ECHCG … application post-emergence” value was 5. Besides, in data set [2], the “SETFA (Setaria faberi) damage score” value came to 5 and the “ZEAMX (Zea mays) damage score” value came out at 5.
In turn, `CCCC(C)(C)c1onc(N2C(=O)C(Cl)=C(C)C2O)c1C#N` (stereo not shown) [A46] came in with a melting point of 113 to 115 °C. In data set [1], the “Pre-emergence herbicidal damage score, ABUTH” value was 2; the “Pre-emergence herbicidal damage score, ALOMY” value is 4; the “Pre-emergence herbicidal damage score, AMARE” value is recorded as 5; the “Pre-emergence herbicidal damage score, ECHCG” value is on record as 4. In addition, in data set [1], the “Pre-emergence herbicidal damage score, SETFA” value was 4 and the “Pre-emergence herbicidal damage score, ZEAMX” value was found to be 3. In addition, in data set [2], the “ABUTH … application post-emergence” value was 5; the “ALOMY … application post-emergence” value came out at 5; the “AMARE … application post-emergence” value was found to be 5; the “ECHCG … application post-emergence” value turned out to be 5. Moreover, in data set [2], the “SETFA (Setaria faberi) damage score” value came out at 5 and the “ZEAMX (Zea mays) damage score” value came out at 3.
In turn, `C=CCOCC(C)(C)c1cc(N2C(=O)C(Cl)=C(C)C2O)no1` (stereo not shown) [A33] returned a melting point of 66 to 68 °C. In data set [1], the “Pre-emergence herbicidal damage score, ABUTH” value is on record as 3; the “Pre-emergence herbicidal damage score, ALOMY” value was 2; the “Pre-emergence herbicidal damage score, AMARE” value is listed as 5; the “Pre-emergence herbicidal damage score, ECHCG” value stood at 4. Further, in data set [1], the “Pre-emergence herbicidal damage score, SETFA” value was found to be 3 and the “Pre-emergence herbicidal damage score, ZEAMX” value amounted to 3. Further, in data set [2], the “ABUTH … application post-emergence” value is reported as 5; the “ALOMY … application post-emergence” value came to 4; the “AMARE … application post-emergence” value is reported as 5; the “ECHCG … application post-emergence” value was determined as 5. In data set [2], the “SETFA (Setaria faberi) damage score” value is 4 and the “ZEAMX (Zea mays) damage score” value is 5.
`CCCC1=C(Cl)C(=O)N(c2noc(C(C)(C)C)c2C#N)C1OC(=O)CC` (stereo not shown) [A100] returned a melting point of 69 to 71 °C. Further, in data set [1], the “Pre-emergence herbicidal damage score, ABUTH” value is recorded as 5; the “Pre-emergence herbicidal damage score, ALOMY” value is recorded as 4; the “Pre-emergence herbicidal damage score, AMARE” value is 5; the “Pre-emergence herbicidal damage score, ECHCG” value amounted to 5. In data set [1], the “Pre-emergence herbicidal damage score, SETFA” value amounted to 5 and the “Pre-emergence herbicidal damage score, ZEAMX” value came to 3. For the same molecule, in data set [2], the “ABUTH … application post-emergence” value was 5; the “ALOMY … application post-emergence” value is 5; the “AMARE … application post-emergence” value is reported as 5; the “ECHCG … application post-emergence” value is listed as 5. Besides, in data set [2], the “SETFA (Setaria faberi) damage score” value is on record as 5 and the “ZEAMX (Zea mays) damage score” value was found to be 5.
The molecule `CC1=C(Cl)C(=O)N(c2cc(CC(C)C)on2)C1O` (stereo not shown) [A12] displayed a melting point of 138 to 140 °C. In addition, in data set [1], the “Pre-emergence herbicidal damage score, ABUTH” value is given as 5; the “Pre-emergence herbicidal damage score, ALOMY” value amounted to 4; the “Pre-emergence herbicidal damage score, AMARE” value was 4; the “Pre-emergence herbicidal damage score, ECHCG” value is reported as 5. Moreover, in data set [1], the “Pre-emergence herbicidal damage score, SETFA” value amounted to 5 and the “Pre-emergence herbicidal damage score, ZEAMX” value was determined as 1. Moreover, in data set [2], the “ABUTH … application post-emergence” value turned out to be 5; the “ALOMY … application post-emergence” value came to 5; the “AMARE … application post-emergence” value is 5; the “ECHCG … application post-emergence” value is 5. Further, in data set [2], the “SETFA (Setaria faberi) damage score” value is 5 and the “ZEAMX (Zea mays) damage score” value was 4.
In turn, `CCCC1=C(Br)C(=O)N(c2noc(C(C)(C)C)c2C#N)C1OC(=O)CC` (stereo not shown) [A73] displayed a melting point of 78 to 80 °C. Further, in data set [1], the “Pre-emergence herbicidal damage score, ABUTH” value is listed as 5; the “Pre-emergence herbicidal damage score, ALOMY” value is on record as 3; the “Pre-emergence herbicidal damage score, AMARE” value stood at 5; the “Pre-emergence herbicidal damage score, ECHCG” value is reported as 4. Further, in data set [1], the “Pre-emergence herbicidal damage score, SETFA” value is 5 and the “Pre-emergence herbicidal damage score, ZEAMX” value came to 3. In data set [2], the “ABUTH … application post-emergence” value is 5; the “ALOMY … application post-emergence” value came to 4; the “AMARE … application post-emergence” value came to 5; the “ECHCG … application post-emergence” value came to 5. Besides, in data set [2], the “SETFA (Setaria faberi) damage score” value is on record as 5 and the “ZEAMX (Zea mays) damage score” value came to 2.
`CC1=C(Cl)C(=O)N(c2cc(C(C)(C)C)on2)C1` [A101] returned a melting point of 138 to 139 °C. Also, in data set [1], the “Pre-emergence herbicidal damage score, ABUTH” value was 5; the “Pre-emergence herbicidal damage score, ALOMY” value was 4; the “Pre-emergence herbicidal damage score, AMARE” value is 5; the “Pre-emergence herbicidal damage score, ECHCG” value worked out at 5. In addition, in data set [1], the “Pre-emergence herbicidal damage score, SETFA” value came to 4 and the “Pre-emergence herbicidal damage score, ZEAMX” value was 3. Also, in data set [2], the “ABUTH … application post-emergence” value worked out at 5; the “ALOMY … application post-emergence” value is on record as 5; the “AMARE … application post-emergence” value is listed as 5; the “ECHCG … application post-emergence” value was 5. In addition, in data set [2], the “SETFA (Setaria faberi) damage score” value worked out at 5 and the “ZEAMX (Zea mays) damage score” value was 4.
`CC1=C(Cl)C(=O)N(c2cc(C3CCC3)on2)C1O` (stereo not shown) [A21] displayed a melting point of 130 to 132 °C. Moreover, in data set [1], the “Pre-emergence herbicidal damage score, ALOMY” value was determined as 3; the “Pre-emergence herbicidal damage score, AMARE” value is listed as 5; the “Pre-emergence herbicidal damage score, ECHCG” value worked out at 5; the “Pre-emergence herbicidal damage score, SETFA” value worked out at 3. In data set [2], the “ALOMY … application post-emergence” value was determined as 5; the “AMARE … application post-emergence” value is 5; the “ECHCG … application post-emergence” value is on record as 5; the “SETFA (Setaria faberi) damage score” value amounted to 5.
For the molecule `CC1=C(Cl)C(=O)N(c2cc(C(C)(C)C(N)=O)on2)C1O` (stereo not shown) [A67, 2-[3-(4-chloro-2-hydroxy-3-methyl-5-oxo-2H-pyrrol-1-yl)isoxazol-5-yl]-2-methyl-propanamide], the melting point was in the range of 169 to 171 °C.
